From PMC12305662, “Fragment-Based Development of Small Molecule Inhibitors Targeting Mycobacterium tuberculosis Cholesterol Metabolism” (Journal of Medicinal Chemistry, 2025)
Values after ≈ are worked out from the molar mass of the structure shown. Where two headings read alike, the source gives them in different places.

Legend:
[1] = target: T1, CYP125 (Mycobacterium tuberculosis, UniProt P9WPP1); experiment: biochemical; assay type: binding; conditions: read-out: KD (μM) CYP125
[2] = target: T1, CYP125; experiment: LC-MS substrate turnover assay (cholest-4-en-3-one); assay type: biochemical; conditions: for IC50: CYP125 0.5 μM, cholest-4-en-3-one 5 µM, LC-MS, read-out: CYP125A1 IC50; for Ki: estimated by Cheng-Prusoff, cholest-4-en-3-one Km CYP125 = 2.1 µM, read-out: CYP125A1 KI
[3] = test system: Mtb H37Rv; experiment: Extracellular Mtb growth on cholesterol, MABA MIC99; assay type: cell-based, Mycobacterium tuberculosis; conditions: cholesterol as sole carbon source, 2 weeks post-compound treatment, read-out: MABA-MIC99 (W2) H37Rv, cholesterol
[4] = test system: Mtb H37Rv; experiment: Depletion of intracellular ATP (BacTiter Glo), Mtb on cholesterol; assay type: cell-based, Mycobacterium tuberculosis; conditions: cholesterol as sole carbon source
[5] = target: T2, CYP142 (Mycobacterium tuberculosis, UniProt P9WPL5); experiment: biochemical
[6] = target: T1, CYP125; assay type: binding; conditions: for CYP125 Δλmax (nm) LS: low spin population, '-' = no LS maxima present; for Δλmax (nm) CYP125, fragment screen: fragment 1 mM, P450 4-6 µM, Soret shift relative to DMSO (393 nm)
[7] = target: T2, CYP142; conditions: for CYP142 Δλmax (nm): compound 100 µM, P450 5 µM; for Δλmax (nm) CYP142, fragment screen: fragment 1 mM, P450 4-6 µM, relative to DMSO (418.5 nm)
[8] = test system: Mtb CDC1551; experiment: Extracellular Mtb growth on cholesterol, MABA MIC99; assay type: cell-based, Mycobacterium tuberculosis; conditions: cholesterol as sole carbon source, 2 weeks post-compound treatment, read-out: MABA-MIC99 (W2) CDC1551, cholesterol
[9] = test system: Mtb CDC1551; experiment: Depletion of intracellular ATP (BacTiter Glo), Mtb on cholesterol; assay type: cell-based; conditions: Mycobacterium tuberculosis, cholesterol as sole carbon source
[10] = test system: Mtb CDC1551; experiment: Depletion of intracellular ATP, Mtb on glucose; conditions: glucose as sole carbon source
Experimental: (§1) (Mtb) H37Rv or CDC1551 strains were grown in Middlebrook 7H9 broth medium (Difco) supplemented with 0.3 g/L casitone, 0.81 g/L NaCl, 0.05% (v/v) tyloxapol, and either 97 mg/L cholesterol, 4 g/L glucose, or 0.2% glycerol. For inhibitor assays, a 10-fold serial dilution of the test compounds was made in the desired medium in duplicate rows of a 96-well plate. Mtb cells were then added to all the wells at the final concentration of 1 × 10^4 CFU, and plates were incubated at 37 °C for up to 15 days. Minimum inhibitory concentrations (MIC99) were determined using the Microplate Alamar Blue Assay (MABA) on day 15.
(§2) BacTiter Glo reagent (Promega) was added to microtiter plates (1:10 dilution) and luminescence was recorded after 15 min of incubation at room temperature. […] Isoniazid or p-amino salicylic acid were used as positive control compounds for all experiments. Reported MIC and IC50 values are the mean of duplicate treatments.

[11] = test system: Mtb H37Rv
Experimental: as §1, §2

[12] = target: CYP124 (Mycobacterium tuberculosis, UniProt P9WPP3); conditions: fragment 1 mM, P450 4-6 µM; relative to DMSO (419 nm)
[13] = target: CYP121 (Mycobacterium tuberculosis, UniProt P9WPP7); conditions: fragment 1 mM, P450 4-6 µM; relative to DMSO (417 nm)
[14] = target: CYP126 (Mycobacterium tuberculosis, UniProt P9WPN9); conditions: fragment 1 mM, P450 4-6 µM; relative to DMSO (418 nm)
[15] = target: CYP143 (Mycobacterium tuberculosis, UniProt P9WPL3); conditions: fragment 1 mM, P450 4-6 µM; relative to DMSO (416 nm)
[16] = target: CYP144 (Mycobacterium tuberculosis, UniProt P9WPL1); conditions: fragment 1 mM, P450 4-6 µM; relative to DMSO (421 nm)
[17] = Mycobacterium tuberculosis, H37RV, 336 h
[18] = Mycobacterium tuberculosis, H37RV, 168 h, 1 week post-compound treatment, read-out: ATP-IC50 (W1) H37Rv, cholesterol
[19] = Mycobacterium tuberculosis, H37RV, 336 h, 2 weeks post-compound treatment, read-out: ATP-IC50 (W2) H37Rv, cholesterol
[20] = Mycobacterium tuberculosis, CDC1551, 336 h
[21] = CDC1551, 168 h, 1 week post-compound treatment, read-out: ATP-IC50 (W1) CDC1551, cholesterol
[22] = CDC1551, 336 h, 2 weeks post-compound treatment, read-out: ATP-IC50 (W2) CDC1551, cholesterol
[23] = read-out: ATP IC50 (W1) CDC1551, glucose media, 1 week

Chain of CYP121 (P9WPP7 whole entry, the tested form may be a part): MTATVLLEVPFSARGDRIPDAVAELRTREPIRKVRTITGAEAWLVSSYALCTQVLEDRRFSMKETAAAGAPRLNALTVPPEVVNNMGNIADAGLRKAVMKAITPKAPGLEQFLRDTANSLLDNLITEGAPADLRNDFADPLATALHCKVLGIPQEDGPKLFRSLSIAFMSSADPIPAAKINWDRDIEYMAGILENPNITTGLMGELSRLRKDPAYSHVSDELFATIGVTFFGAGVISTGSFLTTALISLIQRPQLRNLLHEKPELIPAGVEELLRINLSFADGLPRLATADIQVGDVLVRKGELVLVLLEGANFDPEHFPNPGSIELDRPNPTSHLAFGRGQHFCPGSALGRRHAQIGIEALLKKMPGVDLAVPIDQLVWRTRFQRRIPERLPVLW
T2 sequence (P9WPL5 whole entry, the tested form may be a part): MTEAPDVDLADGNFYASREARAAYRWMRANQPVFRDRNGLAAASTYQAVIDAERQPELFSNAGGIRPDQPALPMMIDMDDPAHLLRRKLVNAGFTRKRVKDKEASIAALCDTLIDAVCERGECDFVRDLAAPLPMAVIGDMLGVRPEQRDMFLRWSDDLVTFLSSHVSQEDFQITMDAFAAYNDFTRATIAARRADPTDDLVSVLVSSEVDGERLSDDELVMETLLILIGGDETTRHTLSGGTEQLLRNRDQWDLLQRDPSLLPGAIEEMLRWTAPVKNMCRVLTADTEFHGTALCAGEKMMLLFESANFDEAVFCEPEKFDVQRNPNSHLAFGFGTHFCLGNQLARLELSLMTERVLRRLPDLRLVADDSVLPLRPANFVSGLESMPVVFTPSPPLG
Chain of CYP126 (P9WPN9 whole entry, the tested form may be a part): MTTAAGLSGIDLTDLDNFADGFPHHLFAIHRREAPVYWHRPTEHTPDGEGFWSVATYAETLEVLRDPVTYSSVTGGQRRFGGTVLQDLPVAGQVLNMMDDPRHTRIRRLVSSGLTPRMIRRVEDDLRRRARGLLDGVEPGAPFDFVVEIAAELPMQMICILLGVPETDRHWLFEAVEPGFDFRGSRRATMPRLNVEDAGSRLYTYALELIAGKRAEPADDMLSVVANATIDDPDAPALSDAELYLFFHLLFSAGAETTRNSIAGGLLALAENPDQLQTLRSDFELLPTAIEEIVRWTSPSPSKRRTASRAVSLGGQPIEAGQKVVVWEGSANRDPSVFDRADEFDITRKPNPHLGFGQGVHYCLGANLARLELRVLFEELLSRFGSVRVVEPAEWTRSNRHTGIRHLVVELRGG
Chain of CYP144 (P9WPL1 whole entry, the tested form may be a part): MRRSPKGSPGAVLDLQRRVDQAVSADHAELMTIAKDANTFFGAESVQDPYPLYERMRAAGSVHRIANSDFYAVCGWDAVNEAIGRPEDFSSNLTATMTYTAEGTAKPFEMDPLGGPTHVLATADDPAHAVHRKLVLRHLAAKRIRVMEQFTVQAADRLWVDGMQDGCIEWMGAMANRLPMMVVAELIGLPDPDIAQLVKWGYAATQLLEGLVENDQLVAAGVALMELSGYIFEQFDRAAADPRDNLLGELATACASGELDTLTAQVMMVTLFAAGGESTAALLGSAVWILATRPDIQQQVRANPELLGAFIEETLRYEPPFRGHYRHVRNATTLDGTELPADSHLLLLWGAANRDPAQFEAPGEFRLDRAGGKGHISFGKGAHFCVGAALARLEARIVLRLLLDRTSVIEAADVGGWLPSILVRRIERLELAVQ
Chain of CYP124 (P9WPP3 whole entry, the tested form may be a part): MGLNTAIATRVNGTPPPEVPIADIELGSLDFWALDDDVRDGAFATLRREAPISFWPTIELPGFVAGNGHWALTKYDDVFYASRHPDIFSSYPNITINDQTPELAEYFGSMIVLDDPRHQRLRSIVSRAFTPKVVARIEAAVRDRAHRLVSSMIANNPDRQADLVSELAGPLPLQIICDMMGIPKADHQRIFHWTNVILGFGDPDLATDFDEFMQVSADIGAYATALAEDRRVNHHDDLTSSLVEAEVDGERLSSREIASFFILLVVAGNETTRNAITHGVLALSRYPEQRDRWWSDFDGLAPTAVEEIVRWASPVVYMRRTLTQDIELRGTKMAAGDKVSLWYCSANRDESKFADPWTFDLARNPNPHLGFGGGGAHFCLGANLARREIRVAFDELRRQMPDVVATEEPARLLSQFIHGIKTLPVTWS
Chain of CYP143 (P9WPL3 whole entry, the tested form may be a part): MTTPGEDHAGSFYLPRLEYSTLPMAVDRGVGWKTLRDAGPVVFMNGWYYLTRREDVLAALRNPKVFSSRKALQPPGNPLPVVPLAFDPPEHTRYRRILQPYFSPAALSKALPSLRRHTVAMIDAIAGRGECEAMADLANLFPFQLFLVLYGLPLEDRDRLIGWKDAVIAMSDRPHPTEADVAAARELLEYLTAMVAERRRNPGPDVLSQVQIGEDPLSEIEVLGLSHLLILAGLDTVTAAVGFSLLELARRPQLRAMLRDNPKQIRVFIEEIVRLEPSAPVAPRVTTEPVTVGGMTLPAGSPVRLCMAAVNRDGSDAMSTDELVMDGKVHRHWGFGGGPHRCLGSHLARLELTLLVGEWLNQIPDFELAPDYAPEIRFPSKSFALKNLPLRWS
T1 sequence (P9WPP1 whole entry): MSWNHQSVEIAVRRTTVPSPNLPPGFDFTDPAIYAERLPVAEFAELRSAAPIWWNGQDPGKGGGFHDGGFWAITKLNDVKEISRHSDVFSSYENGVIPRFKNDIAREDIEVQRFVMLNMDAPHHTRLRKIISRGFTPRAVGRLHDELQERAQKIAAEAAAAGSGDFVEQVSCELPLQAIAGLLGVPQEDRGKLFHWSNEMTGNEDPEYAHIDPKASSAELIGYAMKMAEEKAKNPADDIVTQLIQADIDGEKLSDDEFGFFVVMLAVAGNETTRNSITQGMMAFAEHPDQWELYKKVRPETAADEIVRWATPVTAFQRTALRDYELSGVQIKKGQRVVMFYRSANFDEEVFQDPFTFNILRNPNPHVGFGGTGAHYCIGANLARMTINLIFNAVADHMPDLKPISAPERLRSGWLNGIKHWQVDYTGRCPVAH

Row | SMILES | Kd [1] [µM] | IC50 [2] [µM] | Ki [2] [µM] | MIC99 [3, 17] [µM] | IC50 [4, 18] [µM] | IC50 [4, 19] [µM] | Kd [5] [µM] | MIC99 [8, 20] [µM] | IC50 [9, 21] [µM] | IC50 [9, 22] [µM] | Δλmax (nm) CYP125, fragment screen [6] [nm] | Δλmax (nm) CYP142, fragment screen [7] [nm] | Δλmax (nm) CYP124, fragment screen [12] [nm] | Δλmax (nm) CYP121, fragment screen [13] [nm] | Δλmax (nm) CYP126, fragment screen [14] [nm] | Δλmax (nm) CYP143, fragment screen [15] [nm] | Δλmax (nm) CYP144, fragment screen [16] [nm] | other results
1 | COc1ccc(CNc2ccc(N(C)c3ccncc3)cc2)cc1 [5n, N^1-(4-Methoxybenzyl)-N^4-methyl-N^4-(pyridin-4-yl)benzene-1,4-diamine] | 2.9 ± 0.2 | 12 ± 1.2 | 3.6 | 50 (≈ 16 µg/mL) | 4.7 | 9.4 | 0.2 ± 0.01 |  |  |  |  |  |  |  |  |  |  | 
2 | CC(=O)Nc1ccc(Cc2ccncc2)cc1 [3f, N-(4-(Pyridin-4-ylmethyl)phenyl)acetamide] | 18 ± 0.56 |  |  |  |  |  | 1.4 ± 0.36 |  |  |  |  |  |  |  |  |  |  | CYP125 Δλmax (nm) LS ([6]; compound 100 µM, P450 5 µM): 13 nm; CYP142 Δλmax (nm) [7]: 2 nm
3 | O=C(Nc1ccc(Nc2ccncc2)cc1)c1ccccc1 [5b, N-(4-(Pyridin-4-ylamino)phenyl)benzamide] | 11 ± 1.8 |  |  |  |  |  | 2.83 ± 0.001 |  |  |  |  |  |  |  |  |  |  | 
4 | O=C(Nc1ccc(Cc2ccncc2)cc1)c1ccccc1 [5a, N-(4-(Pyridin-4-ylmethyl)phenyl)benzamide] | 0.54 ± 0.22 | 4.3 ± 0.5 | 1.3 | 25 (≈ 7.21 µg/mL) | 19 | 38 | 1.1 ± 0.1 | > 50 | 19 | 38 |  |  |  |  |  |  |  | MIC99 [8]: >50 µM
5 | O=C(NCc1ccc2[nH]ccc2c1)c1cccc(Cc2ccncc2)c1 [5e, N-((1H-Indol-5-yl)methyl)-3-(pyridin-4-ylmethyl)benzamide] | 4 ± 0.36 | 9.2 ± 0.89 | 2.7 | 13 (≈ 4.44 µg/mL) | 2.3 | 19 |  | 6.3 (≈ 2.15 µg/mL) | 0.07 | 19 |  |  |  |  |  |  |  | 
6 | c1ccc(Cc2ccncc2)cc1 [1a] | 180 ± 6.7 |  |  |  |  |  |  |  |  |  |  |  |  |  |  |  |  | CYP125 Δλmax (nm) HS ([6]; compound 100 µM, P450 5 µM, high spin population, '-' = no HS maxima present): 2 nm; CYP125 Δλmax (nm) LS ([6]; compound 100 µM, P450 5 µM): 27 nm
7 | C[C@@H](NC(=O)c1ccc(Cc2ccncc2)cc1)c1ccccc1 [5i, (R)-N-(1-Phenylethyl)-4-(pyridin-4-ylmethyl)benzamide] | 7.4 ± 1 | 33 ± 3.7 | 9.8 | 25 (≈ 7.91 µg/mL) | 9.4 | 4.7 | 0.64 ± 0.47 | 25 (≈ 7.91 µg/mL) | 2.3 | 38 |  |  |  |  |  |  |  | IC50 [10, 23]: 19 µM
8 | COc1ccc(CNc2cccc(Cc3ccncc3)c2)cc1 [5l, N-(4-Methoxybenzyl)-3-(pyridin-4-ylmethyl)aniline] | 6.4 ± 1.1 | 18 ± 1.9 | 5.4 | 19 (≈ 5.78 µg/mL) | 0.59 | 2.3 |  |  |  |  |  |  |  |  |  |  |  | 
9 | O=S(=O)(Nc1ccc(Cc2ccncc2)cc1)c1ccccc1 [5j, N-(4-(Pyridin-4-ylmethyl)phenyl)benzenesulfonamide] | 0.27 ± 0.02 | 1.5 ± 0.16 | 0.44 | 50 (≈ 16.2 µg/mL) | 38 | 50 |  | 25 (≈ 8.11 µg/mL) | 9.4 | > 50 |  |  |  |  |  |  |  | IC50 [11]: 19 µM; IC50 [10, 23]: 38 µM; IC50 ([10]; read-out: ATP IC50 (W2) CDC1551, glucose media, 2 weeks): 38 µM
10 | CS(=O)(=O)Nc1ccc(Cc2ccncc2)cc1 [3g] | 0.23 ± 0.04 |  |  |  |  |  | 1.1 ± 0.14 |  |  |  |  |  |  |  |  |  |  | CYP125 Δλmax (nm) LS ([6]; compound 100 µM, P450 5 µM): 30 nm; CYP125 LS/HS ([6]; compound 100 µM, P450 5 µM, ratio of low spin to high spin CYP125): 2.7; CYP142 Δλmax (nm) [7]: 0 nm
11 | CS(=O)(=O)c1cccc(CNc2ccc(Cc3ccncc3)cc2)c1 [5p, N-(3-(Methylsulfonyl)benzyl)-4-(pyridin-4-ylmethyl)aniline] | 0.35 ± 0.19 | 10 ± 0.95 | 3.1 | 13 (≈ 4.58 µg/mL) | 1.2 | 4.7 |  | 13 (≈ 4.58 µg/mL) | 2.3 | 19 |  |  |  |  |  |  |  | 
12 | CN(c1ccncc1)c1ccc(NC(=O)c2ccccc2)cc1 [5c, N-(4-(Methyl(pyridin-4-yl)amino)phenyl)benzamide] | 7 ± 0.21 | 26 ± 2.4 | 7.7 | > 50 | 9.4 | 19 | 3.1 ± 0.18 |  |  |  |  |  |  |  |  |  |  | MIC99 [3]: >50 µM
13 | COc1ccc(C(C)Nc2ccc(Cc3ccncc3)cc2)cc1 (stereo not drawn) [5o, N-(1-(4-Methoxyphenyl)ethyl)-4-(pyridin-4-ylmethyl)aniline] | 0.8 ± 0.32 | 4.2 ± 0.48 | 1.2 | 19 (≈ 6.05 µg/mL) | 0.15 | 0.59 |  |  |  |  |  |  |  |  |  |  |  | IC50 [11]: 2.3 µM
14 | C[C@@H](NC(=O)c1cccc(Cc2ccncc2)c1)c1ccccc1 [5h, (R)-N-(1-Phenylethyl)-3-(pyridin-4-ylmethyl)benzamide] | 40 ± 2 |  |  | 25 (≈ 7.91 µg/mL) | 9.4 | 19 | 3.3 ± 0.29 | 25 (≈ 7.91 µg/mL) | 2.3 | 38 |  |  |  |  |  |  |  | IC50 [10, 23]: 19 µM
15 | O=C(NCc1ccc2[nH]ccc2c1)c1cccc(Nc2ccncc2)c1 [5g, N-((1H-Indol-5-yl)methyl)-3-(pyridin-4-ylamino)benzamide] | 3.8 ± 0.18 | 25 ± 2.4 | 7.1 | 13 (≈ 4.45 µg/mL) | < 5 | 9.4 |  | 25 (≈ 8.56 µg/mL) | 9.4 | 38 |  |  |  |  |  |  |  | IC50 ([4]; 1 week post-compound treatment, read-out: ATP-IC50 (W1) H37Rv, cholesterol): 4.7 µM
16 | Cn1nc(-c2ccccc2)cc1N [compound 11] |  |  |  |  |  |  |  |  |  |  | 0 | 0 | 0 | 0 | 0 | -0.5 | 0 | 
17 | OCc1ccc(Br)cn1 [compound 29] |  |  |  |  |  |  |  |  |  |  | 0 | 0 | 0 | 0 | 0 | 0.5 | 0 | 
18 | Clc1ccc(Cl)nn1 [compound 27] |  |  |  |  |  |  |  |  |  |  | 0 | 0 | 0 | 0 | 0 | 0.5 | 0 | 
19 | Nc1ccncc1 [compound 47] |  |  |  |  |  |  |  |  |  |  | 0 | 1.5 | 0 | 0 | 0 | 0 | 0 | 
20 | O=C(O)c1cncc(F)c1 [compound 60] |  |  |  |  |  |  |  |  |  |  | 0 | 0 | 0 | 0 | 0 | 1 | 0 | 
21 | COC(=O)c1ccnc(N)c1 [compound 25] |  |  |  |  |  |  |  |  |  |  | 0 | 0 | 0 | 0 | 0 | 0.5 | 0 | 
22 | O=C(O)CCc1ccccc1 [compound 36] |  |  |  |  |  |  |  |  |  |  | 0 | 0 | 0 | 0 | 2 | 1 | 0 | 
